Reference: patent US20260017958A1, “METHOD FOR DETERMINING REGION OF CELL THAT HAS UNDERGONE PROGRAMMED CELL DEATH, DEVICE COMPRISING DETERMINATION UNIT, AND INFORMATION PROCESSING PROGRAM INCLUDING DETERMINATION STEP” (priority 2022, published 2026)

Tests used:
HepG2 cell clusters = details: FIG. 47 and 48
Experimental: A549 cells, a human lung cancer-derived cell line, were seeded on an EZSPHERE 6-well plate (manufactured by AGC Techno Glass Co., Ltd.) at a density of 1.50×10^5 cells per well, and the cells were cultured in MEM medium containing 10% fetal bovine serum and MEM Non-Essential Amino Acids Solution (100x) (manufactured by Gibco, Inc.) at a final concentration of 1× under the conditions of 5% CO2, 37° C., and 100% humidity for 3 days, to form cell clusters. A DMSO solution of staurosporine (manufactured by FUJIFILM Wako Pure Chemical Corporation) was added thereto so as to obtain a final concentration of 0, 10, 20, 50, 100, 200, 300, 500, 700, 1000, 2000, or 5000 nM, and the cells were further cultured for 1 day. […]
Subsequently, the threshold value of the amount of spatial variation of the refractive index used in the threshold method was set to 2×10^−4. Subsequently, the refractive index distribution data was subjected to Gaussian noise removal processing using a Gaussian filter, fourth-order differentiation processing, and image convolution processing, and the amount of spatial variation of the refractive index for each voxel included in the refractive index distribution data was calculated. […]

Experimental for A549 cell clusters: A549 cells, a human lung cancer-derived cell line, were seeded on an EZSPHERE 6-well plate (manufactured by AGC Techno Glass Co., Ltd.) at a density of 1.50×10^5 cells per well, and the cells were cultured in MEM medium containing 10% fetal bovine serum and MEM Non-Essential Amino Acids Solution (100x) (manufactured by Gibco, Inc.) at a final concentration of 1× under the conditions of 5% CO2, 37° C., and 100% humidity for 3 days, to form cell clusters. A DMSO solution of staurosporine (manufactured by FUJIFILM Wako Pure Chemical Corporation) was added thereto so as to obtain a final concentration of 0, 10, 20, 50, 100, 200, 300, 500, 700, 1000, 2000, or 5000 nM, and the cells were further cultured for 1 day. Under the conditions in which the final concentration of STS was 0 nM, a solution of DMSO (manufactured by Sigma-Aldrich Corporation), which was used as a solvent for STS, at a final concentration of 0.5% was added.
For the obtained cell clusters, the refractive index distribution data was acquired using an observation apparatus 1A and the ODT shown in the refractive index distribution measurement method C. An objective lens at a magnification of 60 times was used.
Subsequently, the threshold value of the amount of spatial variation of the refractive index used in the threshold method was set to 2×10^−4. Subsequently, the refractive index distribution data was subjected to Gaussian noise removal processing using a Gaussian filter, fourth-order differentiation processing, and image convolution processing, and the amount of spatial variation of the refractive index for each voxel included in the refractive index distribution data was calculated. Lastly, the obtained amount of spatial variation of the refractive index was compared with the threshold value 2×10^−4, a region having an amount of spatial variation of the refractive index greater than the threshold value was determined to be a region of cells that had undergone programmed cell death (region of dead cells), and a region having an amount of spatial variation of the refractive index smaller than the threshold value was determined to be a non-divided region (region of live cells).

Structure (SMILES): CN[C@@H]1C[C@H]2O[C@@](C)([C@@H]1OC)n1c3ccccc3c3c4c(c5c6ccccc6n2c5c31)C(=O)NC4 [staurosporine]
- external shape of the cell cluster (HepG2 cell clusters): conspicuous changes in the external shape did not occur
- equivalent diameter of the cell cluster (A549 cell clusters; 0-5000 nM, FIG. 41): not dependent on the concentration of staurosporine
- volume of the cell cluster (A549 cell clusters; 0-5000 nM, FIG. 42): not dependent on the concentration of staurosporine
- proportion of regions determined to be non-divided regions (live cells) (A549 cell clusters; 0-5000 nM, FIG. 46): decreased in a staurosporine concentration-dependent manner
- nuclear fragmentation (morphological feature of apoptosis) in refractive index tomography data (A549 cell clusters; 1000 nM, FIG. 43): cells with nuclear fragmentation, which is a morphological feature of apoptosis, were observed on the surface and the inside of the cell cluster
